The values that follow come from patent publication US8648105B2, “Diarylthiohydantoin compounds” (The Regents of the University of California, priority 2006, dated 2014).

Experiment [1] relates to 3T3. The experiment is described as follows: Growth effect on 3T3 cells. Format: cell-based. To be noted: 3T3 normal mouse fibroblast cell line.
Experiment [2] has as its system SkBr3. The experiment is described as follows: Growth effect on SkBr3 cells. It is filed as cell-based. The following applies: SkBr3 breast cancer cells.
Experiment [3] concerns MCF7. The experiment is described as follows: Growth effect on MCF7 cells. It is filed as cell-based. To be noted: MCF7 breast cancer cells.
In experiment [4] the test system is DU-145 cells. The experiment is described as follows: MTS growth assay in DU-145 cells. It is filed as cell-based. To be noted: DU-145, lacks AR expression.
Experiment [5] addresses T1, AR (Homo sapiens, UniProt P10275).
T1 sequence (P10275 1-920): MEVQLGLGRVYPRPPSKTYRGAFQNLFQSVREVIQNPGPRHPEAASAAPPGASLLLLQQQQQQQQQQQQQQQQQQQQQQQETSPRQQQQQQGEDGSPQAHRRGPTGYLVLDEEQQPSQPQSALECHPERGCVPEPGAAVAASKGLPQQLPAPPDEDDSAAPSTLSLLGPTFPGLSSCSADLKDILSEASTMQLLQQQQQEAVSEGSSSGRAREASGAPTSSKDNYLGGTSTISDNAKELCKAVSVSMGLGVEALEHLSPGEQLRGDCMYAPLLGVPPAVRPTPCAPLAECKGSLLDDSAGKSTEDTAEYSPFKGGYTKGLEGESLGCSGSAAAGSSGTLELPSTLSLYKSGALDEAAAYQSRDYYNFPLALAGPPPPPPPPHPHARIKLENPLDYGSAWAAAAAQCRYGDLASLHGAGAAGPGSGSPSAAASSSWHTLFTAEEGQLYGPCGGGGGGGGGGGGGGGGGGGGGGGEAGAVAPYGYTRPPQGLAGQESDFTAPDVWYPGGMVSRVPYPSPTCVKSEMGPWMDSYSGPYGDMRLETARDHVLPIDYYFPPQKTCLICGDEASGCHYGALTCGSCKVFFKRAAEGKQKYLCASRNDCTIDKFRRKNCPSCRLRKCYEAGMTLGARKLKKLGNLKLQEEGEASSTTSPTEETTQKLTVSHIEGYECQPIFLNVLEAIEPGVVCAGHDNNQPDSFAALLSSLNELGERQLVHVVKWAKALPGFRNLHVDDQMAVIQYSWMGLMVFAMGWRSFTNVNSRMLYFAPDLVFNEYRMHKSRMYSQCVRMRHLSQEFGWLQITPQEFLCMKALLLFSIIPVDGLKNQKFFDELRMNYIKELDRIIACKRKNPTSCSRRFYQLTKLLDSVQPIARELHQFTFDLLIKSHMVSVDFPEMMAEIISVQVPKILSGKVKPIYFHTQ
Format: cell-based. Also noted: Fold induction, AR response reporter. The following applies: hormone refractory LNCaP-AR. The method, then:
The compounds were subjected to tests using an artificial AR response reporter system in a hormone refractory prostate cancer cell line. […] After two days of incubation, reporter activities were assayed.

The target in experiment [6] is T1, AR. It is filed as cell-based. More on the design: Fold induction, AR response reporter. The following applies: AR over expressed LNCaP, absence of R1881.
Experiment [7] has as its target T1, AR. Format: cell-based. More on the design: Fold induction, AR response reporter. To be noted: LN-AR, absence of R1881. The method, then:
Activities of AR response reporter were measured.

Experiment [8] in a line: Ranking of compounds in tiers for utility in treating prostate cancer.
Description: The placement of compounds into tiers was based on available data coupled with analytical judgment. Data considered included in vitro assays (AR response reporter system in LNCaP cell line, PSA level measurement, MTS mitochondrial assay) and in vivo experiments (tumor size measured directly or by emission induced by luciferase reporter gene, pharmacokinetic assays based on blood plasma levels). Not every compound was subjected to each assay. Not all data that was generated is shown. Judgment was applied in ranking compounds relative to each other for their utility in treating prostate cancer, in particular when ranking two compounds for which the same experiments were not performed.

As to `Cc1ccc(N2C(=S)N(c3ccc(C#N)c(C(F)(F)F)c3)C(=O)C2(C)C)cc1` [NC2, 4-[3-(4-methylphenyl)-4,4-dimethyl-5-oxo-2-thioxoimidazolidin-1-yl]-2-trifluoromethyl-benzonitrile], the growth effect result in experiment [1], in experiment [2] and in experiment [3] was “no growth effect” in each case. Also, the growth inhibitory effect result in experiment [4] is reported as “no growth inhibitory effect”.
For `CN1C(=S)N(c2ccc(C#N)c(C(F)(F)F)c2)C(=O)C12CCC2` [NC24, 4-(5-methyl-8-oxo-6-thioxo-5,7-diazaspiro[3.4]oct-7-yl)-2-trifluoromethylenzonitrile, reference compound], the “inhibitory activity on AR response reporter” value (from here on “inhibitory activity”) in experiment [5] is reported as “no inhibitory activities”. The “agonistic activity on secreted PSA” value in experiment [6] was “stimulated PSA expression”. The “agonistic activity on AR response reporter” value in experiment [7] is given as “strongly activated AR”.
Turning to `CN1C(=O)N(c2ccc(C#N)c(C(F)(F)F)c2)C(=O)C12CCC2` [NC25, 4-(5-methyl-6,8-dioxo-5,7-diazaspiro[3.4]oct-7-yl)-2-trifluoromethylbenzonitrile, reference compound], the “inhibitory activity” value in experiment [5] is on record as “no inhibitory activities”. Further, the “agonistic activity on secreted PSA” value in experiment [6] was “stimulated PSA expression”. Besides, the “agonistic activity on AR response reporter” value in experiment [7] was “strongly activated AR”.
Turning to `CN1C(=S)N(c2ccc(C#N)c(C(F)(F)F)c2)C(=O)C12CCCC2` [NC26, 4-(1-methyl-4-oxo-2-thioxo-1,3-diazaspiro[4.4]non-3-yl)-2-trifluoromethylbenzonitrile, reference compound], the “inhibitory activity” value in experiment [5] is “no inhibitory activities”. For the same compound, the “agonistic activity on secreted PSA” value in experiment [6] is recorded as “stimulated PSA expression”. In addition, the “agonistic activity on AR response reporter” value in experiment [7] is recorded as “strongly activated AR”.
Turning to `Cc1ccc(N2C(=S)N(c3ccc(C#N)c(I)c3)C(=O)C2(C)C)cc1` [NC63], in experiment [8], the “activity remarks in the ranking” value is “good activity”.
Take `Cc1ccc(N2C(=S)N(c3ccc(C#N)c(Cl)c3)C(=O)C2(C)C)cc1` [NC107]: the “activity remarks in the ranking” value in experiment [8] is listed as “very poor activity”.
